Experimental data from the NIST ThermoML archive (doi:10.1021/je101178u).
“And” between values parts separate entries of the source, which are not always exact repeats. Equal entries are not always repeated.

Settings: Fluid (supercritical or subcritical phases); for viscosity: vibrating wire; for mass density: Buoyancy - hydrostatic balance with magnetic suspension - one sinker

CC [ethane]
Settings | mass density | viscosity
307.15 K, 29063 kPa | – | 0.07227 mPa·s
307.15 K, 29978 kPa | 436.186 kg/m3 and 436.185 kg/m3 | 0.07317 mPa·s and 0.07325 mPa·s
307.15 K, 29979 kPa | 436.187 kg/m3 | 0.07323 mPa·s
307.15 K, 29980 kPa | 436.189 kg/m3 | 0.07314 mPa·s and 0.07319 mPa·s
423.15 K, 95.75 kPa | 0.82018 kg/m3 | 0.01277 mPa·s
423.15 K, 95.83 kPa | 0.82091 kg/m3 | 0.01276 mPa·s
423.15 K, 117.47 kPa | 1.0068 kg/m3 | 0.01277 mPa·s
423.15 K, 117.64 kPa | 1.0082 kg/m3 | 0.01277 mPa·s
423.15 K, 117.73 kPa | 1.009 kg/m3 | 0.01277 mPa·s
423.15 K, 226.59 kPa | 1.947 kg/m3 | 0.0128 mPa·s
423.15 K, 226.76 kPa | 1.9485 kg/m3 | 0.0128 mPa·s
423.15 K, 459.37 kPa | 3.9693 kg/m3 | 0.01284 mPa·s
423.15 K, 459.46 kPa | 3.9701 kg/m3 | 0.01284 mPa·s
423.15 K, 691.62 kPa | 6.0097 kg/m3 | 0.0129 mPa·s
423.15 K, 691.95 kPa | 6.0126 kg/m3 | 0.01289 mPa·s
423.15 K, 915.95 kPa | 8.0024 kg/m3 | 0.01294 mPa·s
423.15 K, 916.03 kPa | 8.0031 kg/m3 | 0.01294 mPa·s
423.15 K, 1136.5 kPa | 9.9828 kg/m3 | 0.01298 mPa·s
423.15 K, 1136.7 kPa | 9.9843 kg/m3 | 0.01298 mPa·s
423.15 K, 1357.6 kPa | 11.99 kg/m3 | 0.01303 mPa·s
423.15 K, 1357.9 kPa | 11.993 kg/m3 | 0.01303 mPa·s
423.15 K, 1576.5 kPa | 13.999 kg/m3 | 0.01306 mPa·s and 0.01307 mPa·s
423.15 K, 1794.4 kPa | 16.02 kg/m3 | 0.01312 mPa·s
423.15 K, 1795 kPa | 16.025 kg/m3 | 0.01311 mPa·s
423.15 K, 2007.1 kPa | 18.014 kg/m3 | 0.01317 mPa·s
423.15 K, 2007.2 kPa | 18.015 kg/m3 | 0.01317 mPa·s
423.15 K, 2209.1 kPa | 19.928 kg/m3 | 0.01322 mPa·s
423.15 K, 2209.2 kPa | 19.929 kg/m3 | 0.01322 mPa·s
423.15 K, 3243 kPa | 30.033 kg/m3 | 0.01352 mPa·s
423.15 K, 3244.5 kPa | 30.048 kg/m3 | 0.01351 mPa·s
423.15 K, 4164.4 kPa | 39.494 kg/m3 | 0.01382 mPa·s
423.15 K, 4164.5 kPa | 39.495 kg/m3 | 0.01382 mPa·s
423.15 K, 4551.5 kPa | 43.602 kg/m3 | 0.01395 mPa·s
423.15 K, 4555.3 kPa | 43.642 kg/m3 | 0.01396 mPa·s
423.15 K, 5910.6 kPa | 58.665 kg/m3 | 0.01454 mPa·s
423.15 K, 5914.3 kPa | 58.707 kg/m3 | 0.01455 mPa·s
423.15 K, 6746.2 kPa | 68.424 kg/m3 | 0.01497 mPa·s
423.15 K, 6746.9 kPa | 68.432 kg/m3 | 0.01497 mPa·s
423.15 K, 7528 kPa | 77.889 kg/m3 | 0.01542 mPa·s
423.15 K, 7530.1 kPa | 77.915 kg/m3 | 0.01542 mPa·s
423.15 K, 8298.5 kPa | 87.517 kg/m3 | 0.0159 mPa·s
423.15 K, 8300.8 kPa | 87.546 kg/m3 | 0.0159 mPa·s
423.15 K, 9235.9 kPa | 99.586 kg/m3 | 0.01656 mPa·s
423.15 K, 9238.5 kPa | 99.621 kg/m3 | 0.01656 mPa·s
423.15 K, 10732 kPa | 119.465 kg/m3 | 0.01774 mPa·s
423.15 K, 10733 kPa | 119.476 kg/m3 | 0.01775 mPa·s
423.15 K, 12215 kPa | 139.509 kg/m3 | 0.0191 mPa·s
423.15 K, 12218 kPa | 139.549 kg/m3 | 0.01909 mPa·s
423.15 K, 13727 kPa | 159.706 kg/m3 | 0.02062 mPa·s
423.15 K, 13728 kPa | 159.722 kg/m3 | 0.02062 mPa·s
423.15 K, 15325 kPa | 180.142 kg/m3 | 0.02234 mPa·s
423.15 K, 15327 kPa | 180.168 kg/m3 | 0.02234 mPa·s
423.15 K, 16990 kPa | 199.904 kg/m3 | 0.0242 mPa·s
423.15 K, 16991 kPa | 199.911 kg/m3 | 0.02421 mPa·s
423.15 K, 16992 kPa | 199.925 kg/m3 | 0.0242 mPa·s
423.15 K, 18872 kPa | 220.003 kg/m3 | 0.02632 mPa·s
423.15 K, 18874 kPa | 220.02 kg/m3 | 0.02632 mPa·s
423.15 K, 18878 kPa | 220.065 kg/m3 | 0.02633 mPa·s
423.15 K, 21034 kPa | 240.207 kg/m3 and 240.204 kg/m3 | 0.0287 mPa·s
423.15 K, 23414 kPa | 259.265 kg/m3 | 0.03119 mPa·s
423.15 K, 23415 kPa | 259.275 kg/m3 | 0.0312 mPa·s
423.15 K, 26527 kPa | 280.132 kg/m3 | 0.03425 mPa·s
423.15 K, 26529 kPa | 280.144 kg/m3 | 0.03424 mPa·s
423.15 K, 30162 kPa | 300.101 kg/m3 | 0.03757 mPa·s
423.15 K, 30174 kPa | 300.162 kg/m3 | 0.03757 mPa·s
423.15 K, 30181 kPa | 300.195 kg/m3 | 0.03756 mPa·s
423.15 K, 30183 kPa | 300.204 kg/m3 | 0.03758 mPa·s
